tested on: Hep3B cells; assay: Epo protein produced by Hep3B cell line, ELISA / AlphaLISA; assay type: cell-based; conditions: Homo sapiens, 48 hours incubation, 100 micromolar = maximum concentration tested
Protocol: Hep3B cells obtained from the American Type Culture Collection (ATCC) are seeded at 2×10̂4 cells/well in Dulbecco's Modified Eagle Medium (DMEM)+10% FBS in 96-well plates. Cells are incubated at 37deg C./5% CO2/90% humidity (standard cell culture incubation conditions). After overnight adherence, medium is removed and replaced with DMEM without serum containing test compound or DMSO negative control. Following 48 hours incubation, cell culture medium is collected and assayed by ELISA to quantitate Epo protein.
Hep3B cells obtained from the American Type Culture Collection (ATCC) are seeded at 2×10̂4 cells/well in Dulbecco's Modified Eagle Medium (DMEM)+10% FBS in 96-well plates. Cells are incubated at 37deg C./5% CO2/90% humidity (standard cell culture incubation conditions). After overnight adherence, medium is removed and replaced with DMEM with 2% serum containing test compound or DMSO negative control. Following 48 hours incubation, cell culture medium is collected and either frozen for later assay or assayed immediately by AlphaLISA to quantitate Epo protein.

Structure (SMILES)	EC50
O=C(O)CNC(=O)c1c(O)nc(-c2ccccc2)[nH]c1=O [Example 2, N-[(4-Hydroxy-6-oxo-2-phenyl-1,6-dihydro-5-pyrimidinyl)carbonyl]glycine]	> 100 µM
O=C(O)CNC(=O)c1c(O)nc(-c2cccc(C(=O)O)c2)[nH]c1=O [Example 18, 3-(5-{[(Carboxymethyl)amino]carbonyl}-4-hydroxy-6-oxo-1,6-dihydro-2-pyrimidinyl)benzoic acid]	> 100 µM
O=C(O)CNC(=O)c1c(O)nc(-c2cccc(C(=O)NCc3ccccc3)c2)n(Cc2ccccc2)c1=O [Example 20, N-{[4-Hydroxy-6-oxo-1-(phenylmethyl)-2-(3-{[(phenylmethyl)amino]carbonyl}phenyl)-1,6-dihydro-5-pyrimidinyl]carbonyl}glycine]	> 100 µM
O=C(O)CNC(=O)c1c(O)nc(-c2cccc(C(=O)O)c2)n(Cc2ccccc2)c1=O [Example 26, 3-[5-{[(Carboxymethyl)amino]carbonyl}-4-hydroxy-6-oxo-1-(phenylmethyl)-1,6-dihydro-2-pyrimidinyl]benzoic acid]	> 100 µM
O=C(O)CNC(=O)c1c(O)nc(-c2ccccc2Cl)n(Cc2ccccc2)c1=O [Example 30, N-{[2-(2-Chlorophenyl)-4-hydroxy-6-oxo-1-(phenylmethyl)-1,6-dihydro-5-pyrimidinyl]carbonyl}glycine]	> 100 µM
CC(C)CC(CC(C)C)c1nc(O)c(C(=O)NCC(=O)O)c(=O)n1Cc1ccc(C(C)(C)C)cc1 [Example 48]	> 100 µM
O=C(O)CNC(=O)c1c(O)nc(-c2c(Cl)cccc2-c2ccccc2)n(Cc2ccccc2Cl)c1=O [Example 56, N-({2-(3-Chloro-2-biphenylyl)-1-[(2-chlorophenyl)methyl]-4-hydroxy-6-oxo-1,6-dihydro-5-pyrimidinyl}carbonyl)glycine]	> 100 µM

Next, values leading:

EC50	Structure (SMILES)
> 100 µM	CC(C)(C)c1ccc(Cn2c(-c3c(Cl)cccc3Cl)nc(O)c(C(=O)NCC(=O)O)c2=O)cc1 [Example 29, N-[(2-(2,6-Dichlorophenyl)-1-{[4-(1,1-dimethylethyl)phenyl]methyl}-4-hydroxy-6-oxo-1,6-dihydro-5-pyrimidinyl)carbonyl]glycine]
> 100 µM	Cc1cccc(C)c1-c1nc(O)c(C(=O)NCC(=O)O)c(=O)n1Cc1ccc(C(C)(C)C)cc1 [Example 40, N-{[1-{[4-(1,1-Dimethylethyl)phenyl]methyl}-2-(2,6-dimethylphenyl)-4-hydroxy-6-oxo-1,6-dihydro-5-pyrimidinyl]carbonyl}glycine]
> 100 µM	CC(C)(C)c1ccc(Cn2c(-c3c(Br)cccc3Br)nc(O)c(C(=O)NCC(=O)O)c2=O)cc1 [Example 42, N-[(2-(2,6-Dibromolphenyl)-1-{[4-(1,1-dimethylethyl)phenyl]methyl}-4-hydroxy-6-oxo-1,6-dihydro-5-pyrimidinyl)carbonyl]glycine]
> 100 µM	CC(C)(C)c1ccc(Cn2c(-c3c(-c4ccccc4)cccc3-c3ccccc3)nc(O)c(C(=O)NCC(=O)O)c2=O)cc1 [Example 43, N-{[1-{[4-(1,1-Dimethylethyl)phenyl]methyl}-4-hydroxy-6-oxo-2-(1,1′:3′,1″-terphenyl-2′-yl)-1,6-dihydro-5-pyrimidinyl]carbonyl}glycine]
> 100 µM	CC(C)(C)c1ccc(Cn2c(-c3ccccc3-c3ccccc3)nc(O)c(C(=O)NCC(=O)O)c2=O)cc1 [Example 46, N-[(2-(2-Biphenylyl)-1-{[4-(1,1-dimethylethyl)phenyl]methyl}-4-hydroxy-6-oxo-1,6-dihydro-5-pyrimidinyl)carbonyl]glycine]
> 100 µM	CC(C)(C)c1ccc(Cn2c(-c3ccccc3-c3cc(F)cc(F)c3)nc(O)c(C(=O)NCC(=O)O)c2=O)cc1 [Example 47, N-[(2-(3′,5′-Difluoro-2-biphenylyl)-1-{[4-(1,1-dimethylethyl)phenyl]methyl}-4-hydroxy-6-oxo-1,6-dihydro-5-pyrimidinyl)carbonyl]glycine]
> 100 µM	CC(C)(C)c1ccc(Cn2c(-c3ccccc3-c3ccc(C(F)(F)F)cc3)nc(O)c(C(=O)NCC(=O)O)c2=O)cc1 [Example 49, N-({1-{[4-(1,1-Dimethylethyl)phenyl]methyl}-4-hydroxy-6-oxo-2-[4′-(trifluoromethyl)-2-biphenylyl]-1,6-dihydro-5-pyrimidinyl}carbonyl)glycine]
> 100 µM	CC(C)(C)c1ccc(Cn2c(-c3c(Cl)cccc3-c3ccccc3)nc(O)c(C(=O)NCC(=O)O)c2=O)cc1 [Example 55, N-[(2-(3-Chloro-2-biphenylyl)-1-{[4-(1,1-dimethylethyl)phenyl]methyl}-4-hydroxy-6-oxo-1,6-dihydro-5-pyrimidinyl)carbonyl]glycine]
> 100 µM	CC(C)(C)c1ccc(Cn2c(-c3c(Cl)cc(Cl)cc3Cl)nc(O)c(C(=O)NCC(=O)O)c2=O)cc1 [Example 57, N-{[1-{[4-(1,1-Dimethylethyl)phenyl]methyl}-4-hydroxy-6-oxo-2-(2,4,6-trichlorophenyl)-1,6-dihydro-5-pyrimidinyl]carbonyl}glycine]
